Columns and labels:
[1] = target: T1, alcohol dehydrogenase from yeast (Saccharomyces cerevisiae, UniProt P00330); test: SDS gel electrophoresis of alcohol dehydrogenase after storage with coenzyme
T1 sequence (P00330 1-348): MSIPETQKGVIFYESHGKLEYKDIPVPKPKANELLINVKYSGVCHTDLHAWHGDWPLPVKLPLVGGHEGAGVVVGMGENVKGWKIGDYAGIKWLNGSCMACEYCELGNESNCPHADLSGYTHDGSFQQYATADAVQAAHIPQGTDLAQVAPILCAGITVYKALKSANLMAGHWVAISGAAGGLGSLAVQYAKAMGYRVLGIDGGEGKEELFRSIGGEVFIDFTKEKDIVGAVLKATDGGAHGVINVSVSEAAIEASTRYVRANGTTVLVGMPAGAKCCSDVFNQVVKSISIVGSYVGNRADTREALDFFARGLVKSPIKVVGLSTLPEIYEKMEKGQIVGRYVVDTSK
Description: Test conditions: MW, 10 220 kDa markers; 1: ADH, 65 hours at 6° C.; 2: ADH/cNAD, 65 hours at 6° C.; 3: ADH/NAD, 65 hours at 6° C.; 4: ADH, 65 hours at 35° C.; 5: ADH/cNAD, 65 hours at 35° C.; 6: ADH/NAD, 65 hours at 35° C.
Test conditions: MW, 10 220 kDa markers; 1: ADH/NAD, 0 days; 2: ADH/NAD, 1 day; 3: ADH/NAD, 2 days; 4: ADH/NAD, 3 days; 5: ADH/NAD, 5 days; 6: ADH/cNAD, 0 days; 7: ADH/cNAD, 1 day; 8: ADH/cNAD, 2 days; 9: ADH/cNAD, 3 days; 10: ADH/cNAD, 6 days.
(§1) cNAD or NAD were added to an alcohol detection solution. These mixtures were stored at 35° C. The stability of the enzyme was then checked at regular intervals, and the residual activity of the enzyme was determined.

[2] = target: GlucDH_E170K_K252L (GlucDH-Mut2) (Bacillus subtilis, UniProt P12310, A229V/A236S/E170K/Q252L); test: Residual activity of GlucDH mutant after dry storage with coenzyme; type: biochemical; settings: storage at 32° C. and 85% relative humidity for 24 weeks
Description: (§2) FIG. 8 is a depiction of the GlucDH activity after storage of glucose dehydrogenase (GlucDH wt), the double mutant GlucDH_E96G_EI70K (GlucDH Mut1) and the double mutant GlucDH_E170K_K252L (GlucDH Mut2) in the presence of NAD and cNAD, respectively, at 32° C. and 83% relative humidity over a period of 25 weeks.
(§3) Carba-NAD (FIG. 1A) or NAD were added to the glucose-specific GlucDH. These formulations were in each case applied to Pokalon film (Lonza) and, after drying, stored under warm and moist conditions (32° C., 85% relative humidity). The reaction kinetics and the function plot were subsequently determined at regular intervals. In parallel, at each of the times of measurement a cNAD/NAD analysis and a determination of the residual activity of the enzyme were carried out.
(§4) If a mutant is used instead of the wild-type enzyme (from Bacillus subtilis), it is possible to increase the residual GlucDH activity even further. […]

[3] = target: GlucDH_E96G_E170K (GlucDH-Mut1) (Bacillus subtilis, UniProt P12310, A229V/A236S/E170K/E96G/Q252K); test: as above; type: biochemical; settings: storage at 32° C. and 85% relative humidity for 24 weeks
Description: as §2, §3, §4

[4] = Residual content of coenzyme in glucose detection reagent after dry storage on film (cNAD/NAD analysis); type: physicochemical; settings: storage at 32° C. and 85% relative humidity for 24 weeks
Description: as §3
The relation between structure of the coenzyme and its stability over a predetermined period is evident from FIG. 6. According to this, the residual content of cNAD in a glucose detection reagent after storage (at 32° C. and 85% relative humidity) for 24 weeks is still about 80% of the initial level, whereas the content of NAD in a glucose detection reagent stabilized with NAD declines after only 5 weeks to about 35% of the initial level and, by extrapolation, is reduced to zero after about 17 weeks.

[5] = target: glucose dehydrogenase (GlucDH) (Bacillus subtilis, UniProt P12310); test: Stability of GlucDH in liquid phase at 50° C. with coenzyme (residual activity); type: biochemical
Description: FIG. 11A is a depiction of the stability of glucose dehydrogenase in the presence of NAD and cNAD, respectively, in liquid phase at 50° C. over a period of 4 days Test conditions: GlucDH 10 mg/ml; NAD and cNAD, respectively, 12 mg/ml; buffer: 0.1 M Tris, 1.2 M NaCl, pH 8.5; temperature 50° C.
FIG. 11B is a depiction of the stability of glucose dehydrogenase in the presence of NAD and cNAD, respectively, in liquid phase at 50° C. over a period of 14 days at the same test conditions as FIG. 11A.
After 95 hours at 50° C., the residual activity of glucose dehydrogenase in the presence of the native coenzyme NAD is ≈5%, whereas the residual activity of GlucDH in the presence of the artificial coenzyme cNAD is 75% (FIG. 11A). After storage at 50° C. for 336 hours, the residual activity of the enzyme stabilized with NAD is now only about 1%; the residual activity of the enzyme stored in the presence of cNAD is observed to be still about 70%.

[6] = target: T1, alcohol dehydrogenase from yeast; test: Stability of alcohol dehydrogenase in liquid phase at 35° C. with coenzyme (residual activity); type: biochemical; settings: after 65 hours at 35° C.
Description: FIG. 14 is a depiction of the stability of alcohol dehydrogenase from yeast in the presence of NAD and cNAD, respectively, in liquid phase at 35° C. over a period of 65 hours. Test conditions: ADH 5 mg/ml; NAD and cNAD, respectively, 50 mg/ml; buffer: 75 mM Na4P207, glycine, pH 9.0; temperature 35° C.
as §1
After 65 hours at 35° C., the residual activity of alcohol dehydrogenase in the presence of the native coenzyme NAD is about 6%, whereas the residual activity of the enzyme in the presence of the artificial coenzyme cNAD is still about 60%.

Which results are given for `NC(=O)c1ccc[n+]([C@@H]2C[C@H](COP(=O)([O-])OP(=O)(O)OC[C@H]3O[C@@H](n4cnc5c(N)ncnc54)[C@H](O)[C@@H]3O)[C@@H](O)[C@H]2O)c1` [cNAD, carba-NAD]?
alcohol dehydrogenase band in SDS gel ([1]; storage at 35° C., NAD 5 days, cNAD 6 days): distinctly less decomposition of the enzyme; alcohol dehydrogenase band in SDS gel ([1]; storage for 65 hours at 35° C. (versus 6° C.)): differ only slightly; residual activity of GlucDH_E170K_K252L mutant [2]: about 50%; residual activity of GlucDH_E96G_E170K mutant [3]: about 70%; residual content of coenzyme in glucose detection reagent [4]: about 80 % of the initial level; residual activity of glucose dehydrogenase ([5]; after 95 hours at 50° C.): 75%; residual activity of glucose dehydrogenase ([5]; storage at 50° C. for 336 hours): about 70%; residual activity of alcohol dehydrogenase [6]: about 60%

Source: patent US11220674B2, “Stabilization of dehydrogenases with stable coenzymes” (ROCHE DIABETES CARE, INC., priority 2009, dated 2022)
